From patent publication EP3981864A1, “DETERGENT COMPOSITION” (priority 2020, dated 2022) come the findings set out here.

This assay deals with T1, Pisum sativum αDOX (SEQ ID NO: 4), fatty acid alpha-dioxygenase, Q5GQ66, N-terminal His-tag variant SEQ ID NO: 255 (Pisum sativum, UniProt Q5GQ66).
T1 construct: made in house; host or cells: Escherichia coli BL21 (DE3), pET30a
T1 sequence (Q5GQ66 1-643): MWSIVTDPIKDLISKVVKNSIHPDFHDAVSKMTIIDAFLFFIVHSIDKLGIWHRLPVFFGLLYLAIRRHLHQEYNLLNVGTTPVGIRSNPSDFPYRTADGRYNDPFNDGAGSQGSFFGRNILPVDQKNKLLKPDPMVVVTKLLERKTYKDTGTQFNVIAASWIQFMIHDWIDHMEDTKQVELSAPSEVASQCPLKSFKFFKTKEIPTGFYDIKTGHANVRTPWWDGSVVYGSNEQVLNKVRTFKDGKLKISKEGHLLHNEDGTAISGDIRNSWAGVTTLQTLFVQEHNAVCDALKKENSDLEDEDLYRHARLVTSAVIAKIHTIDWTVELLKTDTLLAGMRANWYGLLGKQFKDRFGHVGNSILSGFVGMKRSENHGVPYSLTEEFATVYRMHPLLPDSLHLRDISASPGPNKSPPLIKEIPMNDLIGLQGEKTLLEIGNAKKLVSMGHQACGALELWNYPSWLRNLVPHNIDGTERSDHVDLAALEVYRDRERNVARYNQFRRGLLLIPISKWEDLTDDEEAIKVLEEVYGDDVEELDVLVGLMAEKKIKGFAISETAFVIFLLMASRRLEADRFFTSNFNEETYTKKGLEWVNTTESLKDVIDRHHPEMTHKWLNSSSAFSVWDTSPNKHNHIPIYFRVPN
As to the kind of experiment: Alpha-dioxygenase activity assay (oxygen consumption, TON). Format: biochemical. As to conditions: fatty acid 100 µM, enzyme 6 ppm, 50 mM HEPES pH 9.0, 37°C; initial rate of oxygen consumption / enzyme concentration. An excerpt:
Pisum sativum αDOX (SEQ ID NO: 4) is a fatty acid alpha-dioxygenase that converts fatty acids into the corresponding 2-hydroperoxy fatty acids and is included as an example of the present invention. A codon optimized gene (SEQ ID NO: 254) encoding for an alpha-dioxygenase variant (SEQ ID NO: 255), including an N-terminal amino acid sequence containing a His-tag was designed and synthesized by Genscript. After gene synthesis, the protein was expressed and purified. In brief, the complete synthetic gene sequence was subcloned into a pET30a vector using the NdeI/HindIII cloning sites. For heterologous expression, Escherichia coli BL21 (DE3) cells were transformed with the recombinant plasmid and a single colony was inoculated into LB medium containing kanamycin (50 mg/L). A pre-starter culture was then inoculated into flasks containing Magic Media (Thermo Fisher, Catalog # K6803) supplemented with kanamycin (50 mg/L) and incubated at 16 °C for 72 h. At an OD600nm = 0.5 - 1.0, 5-aminolevulinic acid (final concentration 0.5 mM) was added. Cells were harvested by centrifugation at 5000 rpm and 4°C and the pellet was lysed using a bacterial cell lysis buffer (B-PER - Themo Fisher, Waltham, MA). After centrifugation, the supernatant was collected, and the protein was purified by one-step purification using HisPur™ Ni-NTA Spin Columns (Thermo Scientific, Catalog # 88226) and standard protocols known in the art. The protein was concentrated using a 10 kDa MW cutoff Amicon Ultra centrifugal filter unit (Millipore Sigma, Catalog# UFC901024), followed by desalting using a disposable PD-10 desalting column (GE Healthcare Life Sciences, Catalog# 17085101) and a buffer containing 50 mM Tris-HCl, 500 mM NaCl, and 10% Glycerol at pH 8.0. […]
Reactions with alpha-dioxygenases were performed as follows. […] The reaction was incubated for up to 10 minutes at 37°C with 200 rpm agitation and the conversion was monitored using an oxygen sensor. The TON (in s-1) were calculated as the ratio between the initial rate of oxygen consumption (in µM/s) and the concentration of enzyme (in µM). […]

As to `CCCCCCCCCCCCCCCCCC(=O)O` [Stearic Acid], the “Stearic Acid, TON” value came out at 0.80 s⁻¹.

On to `CCCCCCCC/C=C\CCCCCCCC(=O)O` [Oleic Acid], for which the “Oleic Acid, TON” value is 1.40 s⁻¹.

Regarding `CCCCCCCCCCCCCCCC(=O)O` [Palmitic Acid], the “Palmitic Acid, TON” value was 1.92 s⁻¹.
